The values that follow come from patent US10016418B2, “Compounds useful as modulators of TRPM8” (Senomyx, Inc., priority 2010, dated 2018).

The target of assay [1] is T1, hTRPM8 (Homo sapiens, UniProt Q7Z2W7).
T1 construct: expressed in transfected cells
The assay can be described thus: hTRPM8 agonist assay in a mammalian cell line stably expressing hTRPM8. It counts as cell-based. The following applies: for EC50 WS-3 Ratio: EC50 ratio to WS-3. As for the experimental part: A mammalian cell line derivative which stably expresses hTRPM8 was used in biological assays in association with testing the present compounds with cool-tasting or -feeling properties (Servant et al. US 2007/0259354 A1 and references cited therein). Typical compound concentrations tested were 100 μM, 50 μM, 10 μM, 1 μM, and 0.5 μM. The present compounds have shown strong activity as agonists of hTRPM8. Assay results for compounds are illustrated in Table 1 below. Specifically, the Examples listed in Table 1, i.e., Compounds A1 to Compounds U10 are the specific compounds, i.e., Examples, as described above.

Assay [2] in a line: Cool Line Scale Test (sensory panel, 15 point line scale, WS-3 reference). Format: in vivo, human. As for the experimental part:
All samples made with Low Sodium Buffer (LSB) pH ˜7.1 and contain 0.1% ethanol.
Compounds are rated on a 15 point line scale where 45 μM WS-3 (N-Ethyl-p-menthane-3-carboxamide) is ranked as a 5 in cool intensity. In most cases our compounds are tested to determine at what concentration the cooling intensity is equivalent to 45 μM WS-3. In each test, the panelist is presented with a 0 μM control sample, a 45 μM WS-3 control sample and the experimental compound sample and asked to rate the cooling intensity of each sample. Panelists are also asked to rate bitterness. In the table below there was no significant bitterness detected unless otherwise noted. Also, in the table below, n represents the number of tests completed for a given experiment (#panelists x #repetitions).
All samples were prepared with Low Sodium Buffer (LSB) pH ˜7.1 and contain 0.1% ethanol

Setting [3] is: Table 7, scaffold T7, Ar phenyl vs thienyl.
The mark [4] stands for this setting: Table 1, cell line stably expressing hTRPM8.

Each structure is given as a SMILES string.

T1 sequence (Q7Z2W7 whole entry): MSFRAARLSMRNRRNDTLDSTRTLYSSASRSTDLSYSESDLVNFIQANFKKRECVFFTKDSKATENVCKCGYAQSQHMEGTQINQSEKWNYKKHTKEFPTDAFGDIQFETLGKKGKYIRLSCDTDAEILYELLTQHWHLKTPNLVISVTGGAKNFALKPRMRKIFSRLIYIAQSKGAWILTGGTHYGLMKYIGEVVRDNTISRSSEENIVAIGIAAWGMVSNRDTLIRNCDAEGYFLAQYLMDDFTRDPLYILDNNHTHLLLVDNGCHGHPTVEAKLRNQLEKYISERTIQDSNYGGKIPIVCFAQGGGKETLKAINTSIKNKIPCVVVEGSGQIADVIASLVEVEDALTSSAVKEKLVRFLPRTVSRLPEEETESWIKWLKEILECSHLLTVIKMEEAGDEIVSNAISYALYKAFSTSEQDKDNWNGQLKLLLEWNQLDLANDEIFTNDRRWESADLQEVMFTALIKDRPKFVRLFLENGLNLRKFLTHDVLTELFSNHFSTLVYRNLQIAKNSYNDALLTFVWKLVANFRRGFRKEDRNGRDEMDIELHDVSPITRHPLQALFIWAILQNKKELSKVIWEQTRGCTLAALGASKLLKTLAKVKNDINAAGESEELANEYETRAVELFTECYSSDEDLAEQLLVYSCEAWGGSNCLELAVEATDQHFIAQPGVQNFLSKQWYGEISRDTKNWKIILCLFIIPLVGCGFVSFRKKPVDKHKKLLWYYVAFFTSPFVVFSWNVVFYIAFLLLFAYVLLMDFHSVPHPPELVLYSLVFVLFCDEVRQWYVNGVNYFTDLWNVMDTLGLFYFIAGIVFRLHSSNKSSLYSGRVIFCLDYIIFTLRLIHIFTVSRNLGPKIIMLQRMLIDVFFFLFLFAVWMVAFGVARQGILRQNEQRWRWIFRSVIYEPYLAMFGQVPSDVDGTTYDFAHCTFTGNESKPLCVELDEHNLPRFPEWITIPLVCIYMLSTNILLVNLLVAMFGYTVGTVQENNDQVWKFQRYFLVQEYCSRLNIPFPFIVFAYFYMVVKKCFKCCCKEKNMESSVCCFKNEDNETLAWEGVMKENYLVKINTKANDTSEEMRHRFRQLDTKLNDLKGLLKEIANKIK

Regarding `CCN(Cc1ccccc1)C(=O)COc1ccccc1` [drawing 234: H, Ethyl, Phenyl, reference compound], the EC50 in assay [1] (setting [3]) stood at 9210 nM. This lies in the single-digit micromolar range.

`CCN(Cc1ccccc1)C(=O)COc1ccc(C)cc1` [drawing 234: 4-Me, Ethyl, Phenyl, reference compound]: a half-maximal response in assay [1] (setting [3]) (EC50) required 776 nM. With `Cc1ccc(OCC(=O)N(Cc2cccs2)c2ccn[nH]2)cc1` [Example F1, N-(1H-pyrazol-5-yl)-N-(thiophen-2-ylmethyl)-2-(p-tolyloxy)acetamide], the “EC50 WS-3 Ratio” value in assay [1] (Table 1) is reported as 21178. The midpoint of the response in assay [1] (setting [4]), the EC50, lay at 0.205 nM. Besides, the “Average Cooling” value in assay [2] (Table 4, 3 μM in LSB pH ~7.1, 0.1% ethanol, n = 28) amounted to 5.1. In assay [2] (compound at 3 μM), the “Sensory Results: cooling compared with 0 μM WS-3” value is “Panelists found 3 μM Compound F1 was significantly more cooling” and the “Sensory Results: cooling compared with 45 μM WS-3” value is “not significantly different in cooling”.

`O=C(COc1ccc(Cl)cc1)N(Cc1cccs1)c1ccccn1` [drawing 234: 4-Cl, 2-Pyridyl, Thienyl] came in with an EC50 in assay [1] (setting [3]) of 2320 nM.

Consider `Cc1ccc(OCC(=O)N(C)Cc2ccccc2)cc1` [drawing 234: 4-Me, Methyl, Phenyl, reference compound], for which, in assay [1] (setting [3]), the EC50 is above 100000 nM. For the compound `O=C(COc1ccc2c(c1)CCC2)N(Cc1cccs1)c1cc[nH]n1` [Example A1, 2-(2,3-dihydro-1H-inden-5-yloxy)-N-(1H-pyrazol-3-yl)-N-(thiophen-2-ylmethyl)acetamide], the “EC50 WS-3 Ratio” value in assay [1] (Table 1) came to 782471. This compound also returned an EC50 in assay [1] (setting [4]) of 0.009 nM. In the case of `Cc1ccc(OCC(=O)N(Cc2cccs2)c2ccccn2)cc1` [drawing 234: 4-Me, 2-Pyridyl, Thienyl], a half-maximal response in assay [1] (setting [3]) (EC50) required 505 nM. `CCNC(=O)C1CC(C)CCC1C(C)C` (centres unmarked) [WS-3, N-Ethyl-p-menthane-3-carboxamide, reference compound]: the “Average Cooling” value is given as 3.8 in assay [2] (Table 2, 45 μM WS-3 control, LSB pH ~7.1, 0.1% ethanol, n = 30) and 5.2 in assay [2] (Table 4, 45 μM WS-3 control, n = 28). Take `O=C(COc1ccc(Br)cc1)N(Cc1cccs1)c1ccccn1` [drawing 234: 4-Br, 2-Pyridyl, Thienyl]: the EC50 in assay [1] (setting [3]) worked out at 2270 nM. `CCN(Cc1cccs1)C(=O)COc1ccc(C)cc1` [Example U1, N-ethyl-N-(thiophen-2-ylmethyl)-2-(p-tolyloxy)acetamide]: the “EC50 WS-3 Ratio” value in assay [1] (Table 1) is 577. Also, the EC50 in assay [1] (setting [4]) is 7.7 nM. The “Sensory Results: cooling compared with 0 μM WS-3” value in assay [2] (compound at 5 μM) was “Panelists found 5 μM Compound U1 was significantly more cooling”. In assay [1] (Table 8, scaffold T8), `CCN(Cc1cccs1)C(=O)/C=C/c1ccc2c(c1)OCO2` registered a half-maximal effective concentration (EC50) above 1 nM. In turn, `CCN(Cc1cccs1)C(=O)COc1ccc(C)cc1` [drawing 234: 4-Me, Ethyl, Thienyl] yielded an EC50 in assay [1] (setting [3]) of 6.9 nM. This counts as single-digit nanomolar. Regarding `O=C(COc1ccc(Br)cc1)N(Cc1ccccc1)c1ccccn1` [drawing 234: 4-Br, 2-Pyridyl, Phenyl, reference compound], the response in assay [1] (setting [3]) was half-maximal at 15600 nM (EC50). Still for that read-out and setting: the figure for `Cc1ccc(OCC(=O)N(Cc2ccccc2)c2ccccn2)cc1` [drawing 234: 4-Me, 2-Pyridyl, Phenyl, reference compound] is 4720 nM; for `CCN(Cc1cccs1)C(=O)COc1ccccc1` [drawing 234: H, Ethyl, Thienyl] it is 1450 nM. As to `Cc1c[nH]nc1N(Cc1cccs1)C(=O)COc1ccc2c(c1)CCC2` [Example B1, 2-(2,3-dihydro-1H-inden-5-yloxy)-N-(4-methyl-1H-pyrazol-3-yl)-N-(thiophen-2-ylmethyl)acetamide], in assay [1] (Table 1), the “EC50 WS-3 Ratio” value was 1000000. In assay [1] (setting [4]), this compound gave an EC50 of 0.001 nM. The “Sensory Results: cooling compared with 0 μM WS-3” value in assay [2] (compound at 5 μM) is “Panelists found 5 μM Compound B2 was significantly more cooling”.

For `O=C(COc1ccc2c(c1)CCC2)N(Cc1cccs1)c1cn[nH]c1` [Example C1, 2-(2,3-dihydro-1H-inden-5-yloxy)-N-(1H-pyrazol-4-yl)-N-(thiophen-2-ylmethyl)acetamide], in assay [1] (Table 1), the “EC50 WS-3 Ratio” value was 502141. The compound also came in with an EC50 in assay [1] (setting [4]) of 0.017 nM. `Cc1ccc(OCC(=O)N(C)Cc2cccs2)cc1` [drawing 234: 4-Me, Methyl, Thienyl]: a half-maximal response in assay [1] (setting [3]) (EC50) required 369 nM. In other words, the sub-micromolar range.
